{"source": "patent USRE48097E1", "about": "“Cephem compounds, their production and use” (priority 2015, dated 2020)", "assay_type_in_all_cases": "cell-based", "key": {"[1]": {"system": "S. pneumoniae 2405", "assay": "MIC against S. pneumoniae 2405", "details": "Table 2, S. pneumoniae 2405, Pen S", "excerpt": "(§1) Without limitation, the present cephem compounds alone, or in combination with one or more β-lactamase inhibitors, may provide improved antibacterial efficacy, particularly in antibiotic-resistant bacterial strains. It is believed that the present compounds may be structurally different from known compounds and, as a result, may be more basic in nature. It is an advantage that the present compounds may extend the spectrum of effective bacterial compounds, particularly against previously-resistant bacteria (e.g. ESKAPE organisms), and/or gram negative bacteria, without significant side effects. In a preferred embodiment, the present cephem compound may comprise reference compound ceftazidime, which may be used alone, or in combination with one or more β-lactamase inhibitors, such as NXL-104. As shown, the foregoing composition was tested for minimum inhibitory concentration (MIC, μg/mL) against bacteria listed in Tables 2-3."}, "[2]": {"system": "S. pneumoniae 2404", "assay": "MIC against S. pneumoniae 2404", "details": "Table 2, S. pneumoniae 2404, Pen S", "excerpt": "as §1"}, "[3]": {"system": "K. pneumoniae 4105", "assay": "MIC against K. pneumoniae 4105", "details": "K. pneumoniae 4105, KPC-3, TEM-1, SHV-11", "protocol": "(§2) As shown, the foregoing composition was tested for minimum inhibitory concentration (MIC, μg/mL) against bacteria listed in Tables 2-3."}, "[4]": {"system": "E. coli 4080", "assay": "MIC against E. coli 4080", "details": "Table 2, E. coli 4080, TEM-10", "excerpt": "as §1"}, "[5]": {"system": "C. freundii 2487", "assay": "MIC against C. freundii 2487", "details": "Table 2, C. freundii 2487, Caz R, IMP S", "excerpt": "as §1"}, "[6]": {"system": "E. cloacae 552", "assay": "MIC against E. cloacae 552", "details": "Table 2, E. cloacae 552, Caz S, IMP S", "excerpt": "as §1"}, "[7]": {"system": "S. pneumoniae 2406", "assay": "MIC against S. pneumoniae 2406", "details": "Table 2, S. pneumoniae 2406, Pen S", "excerpt": "as §1"}, "[8]": {"system": "S. pneumoniae 2403", "assay": "MIC against S. pneumoniae 2403", "details": "Table 2, S. pneumoniae 2403, Pen S", "excerpt": "as §1"}, "[9]": {"system": "K. pneumoniae 2711", "assay": "MIC against K. pneumoniae 2711", "details": "Table 3, K. pneumoniae 2711, KPC-3, VIM-1", "protocol": "as §2"}, "[10]": {"system": "E. cloacae 2689", "assay": "MIC against E. cloacae 2689", "details": "Table 3, E. cloacae 2689, KPC-2", "protocol": "as §2"}, "[11]": {"system": "E. coli 4101", "assay": "MIC against E. coli 4101", "details": "Table 2, E. coli 4101, CTX-M-14, TEM-1", "excerpt": "as §1"}, "[12]": {"system": "C. freundii 15", "assay": "MIC against C. freundii 15", "details": "Table 2, C. freundii 15, Caz R, IMP S", "excerpt": "as §1"}, "[13]": {"system": "K. pneumoniae 2697", "assay": "MIC against K. pneumoniae 2697", "details": "Table 2, K. pneumoniae 2697, IMP-4", "excerpt": "as §1"}, "[14]": {"system": "E. coli 2666", "assay": "MIC against E. coli 2666", "details": "Table 3, E. coli 2666, KPC-2", "protocol": "as §2"}, "[15]": {"system": "C. freundii 579", "assay": "MIC against C. freundii 579", "details": "Table 2, C. freundii 579, Caz R, IMP S", "excerpt": "as §1"}, "[16]": {"system": "S. pneumoniae 2492", "assay": "MIC against S. pneumoniae 2492", "details": "Table 2, S. pneumoniae 2492, Pen R", "excerpt": "as §1"}, "[17]": {"system": "P. aeruginosa 2573", "assay": "MIC against P. aeruginosa 2573", "details": "Table 2, P. aeruginosa 2573, OXA-10 (Class D)", "excerpt": "as §1"}, "[18]": {"system": "S. pneumoniae ATCC 6301", "assay": "MIC against S. pneumoniae ATCC 6301", "details": "Table 2, S. pneumoniae ATCC 6301, Pen S", "excerpt": "as §1"}, "[19]": {"system": "E. cloacae 566", "assay": "MIC against E. cloacae 566", "details": "Table 2, E. cloacae 566, Caz R, IMP S", "excerpt": "as §1"}, "[20]": {"system": "E. cloacae 551", "assay": "MIC against E. cloacae 551", "details": "Table 2, E. cloacae 551, Caz R, IMP S", "excerpt": "as §1"}, "[21]": {"system": "K. pneumoniae 4104", "assay": "MIC against K. pneumoniae 4104", "details": "K. pneumoniae 4104, KPC-3, TEM-1", "protocol": "as §2"}, "[22]": {"system": "K. pneumoniae 4106", "assay": "MIC against K. pneumoniae 4106", "details": "K. pneumoniae 4106, KPC-3, TEM-1, SHV-12, SHV-141", "protocol": "as §2"}, "[23]": {"system": "E. cloacae 2710", "assay": "MIC against E. cloacae 2710", "details": "Table 3, E. cloacae 2710, KPC-3, VIM-1", "protocol": "as §2"}, "[24]": {"details": "Streptococcus pneumoniae, alone, read-out: MIC"}, "[25]": {"details": "Table 2, in combination with NXL-104"}, "[26]": {"details": "Table 3, in combination with NXL-104"}, "[27]": {"details": "Escherichia coli, alone, read-out: MIC"}, "[28]": {"details": "Citrobacter freundii, alone, read-out: MIC"}, "[29]": {"details": "Enterobacter cloacae, alone, read-out: MIC"}, "[30]": {"details": "Klebsiella pneumoniae, alone, read-out: MIC"}}, "note": "Read-outs that look alike come from different tables or passages of the source."}
{"compound": "CC(C)(O/N=C(\\C(=O)N[C@@H]1C(=O)N2C(C(=O)[O-])=C(C[n+]3ccc4n3CCN4Cc3ccc(C(=N)N)cc3)CS[C@H]12)c1csc(N)n1)C(=O)O", "note": "[Example 2, (6R,7R)-7-{[(2Z)-2-(2-Amino-1,3-thiazol-4-yl)-2-{[(2-carboxypropan-2-yl)oxy]imino}acetyl]amino}-3-{[1-(4-carbamimidoylbenzyl)-2,3-dihydro-1H-imidazo[1,2-b]pyrazol-5-ium-5-yl]methyl}-8-oxo-5-thia-1-azabicyclo[4.2.0]oct-2-ene-2-carboxylate]", "values": [{"measurement": "MIC", "setting": "[1]; [24]", "value": 0.12, "unit": "µg/mL"}, {"measurement": "MIC", "setting": "[1]; in combination with NXL-104", "value": "≤0.06", "unit": "µg/mL"}, {"measurement": "MIC", "setting": "[2]; [24]", "value": 0.25, "unit": "µg/mL"}, {"measurement": "MIC", "setting": "[2]; in combination with NXL-104", "value": 0.25, "unit": "µg/mL"}, {"measurement": "MIC", "setting": "[3]; Klebsiella pneumoniae, 4105, Table 2, alone, read-out: MIC", "value": 32, "unit": "µg/mL"}, {"measurement": "MIC", "setting": "[3]; Klebsiella pneumoniae, 4105, Table 3, alone, read-out: MIC", "value": "> 32", "unit": "µg/mL"}, {"measurement": "MIC", "setting": "[3]; [25]", "value": 2.00, "unit": "µg/mL"}, {"measurement": "MIC", "setting": "[3]; [26]", "value": 2, "unit": "µg/mL"}, {"measurement": "MIC", "setting": "[4]; [27]", "value": 8, "unit": "µg/mL"}, {"measurement": "MIC", "setting": "[4]; in combination with NXL-104", "value": 1.00, "unit": "µg/mL"}, {"measurement": "MIC", "setting": "[5]; [28]", "value": 8, "unit": "µg/mL"}, {"measurement": "MIC", "setting": "[5]; in combination with NXL-104", "value": 1.00, "unit": "µg/mL"}, {"measurement": "MIC", "setting": "[6]; [29]", "value": 0.12, "unit": "µg/mL"}, {"measurement": "MIC", "setting": "[6]; in combination with NXL-104", "value": 0.12, "unit": "µg/mL"}, {"measurement": "MIC", "setting": "[7]; [24]", "value": "≤ 0.06", "unit": "µg/mL"}, {"measurement": "MIC", "setting": "[7]; in combination with NXL-104", "value": "≤0.06", "unit": "µg/mL"}, {"measurement": "MIC", "setting": "[8]; [24]", "value": "≤ 0.06", "unit": "µg/mL"}, {"measurement": "MIC", "setting": "[8]; in combination with NXL-104", "value": "≤0.06", "unit": "µg/mL"}, {"measurement": "MIC", "setting": "[9]; [30]", "value": 4, "unit": "µg/mL"}, {"measurement": "MIC", "setting": "[9]; in combination with NXL-104", "value": 0.5, "unit": "µg/mL"}, {"measurement": "MIC", "setting": "[10]; [29]", "value": 8, "unit": "µg/mL"}, {"measurement": "MIC", "setting": "[10]; in combination with NXL-104", "value": 0.5, "unit": "µg/mL"}, {"measurement": "MIC", "setting": "[11]; [27]", "value": 0.5, "unit": "µg/mL"}, {"measurement": "MIC", "setting": "[11]; in combination with NXL-104", "value": 0.12, "unit": "µg/mL"}, {"measurement": "MIC", "setting": "[12]; [28]", "value": 4, "unit": "µg/mL"}, {"measurement": "MIC", "setting": "[12]; in combination with NXL-104", "value": 0.50, "unit": "µg/mL"}, {"measurement": "MIC", "setting": "[13]; [30]", "value": 4, "unit": "µg/mL"}, {"measurement": "MIC", "setting": "[13]; in combination with NXL-104", "value": 1.00, "unit": "µg/mL"}, {"measurement": "MIC", "setting": "[14]; [27]", "value": 32, "unit": "µg/mL"}, {"measurement": "MIC", "setting": "[14]; in combination with NXL-104", "value": 2, "unit": "µg/mL"}, {"measurement": "MIC", "setting": "[15]; [28]", "value": 2, "unit": "µg/mL"}, {"measurement": "MIC", "setting": "[15]; in combination with NXL-104", "value": 0.50, "unit": "µg/mL"}, {"measurement": "MIC", "setting": "[16]; [24]", "value": 8, "unit": "µg/mL"}, {"measurement": "MIC", "setting": "[16]; in combination with NXL-104", "value": 8.00, "unit": "µg/mL"}, {"measurement": "MIC", "setting": "[17]; Pseudomonas aeruginosa, alone, read-out: MIC", "value": 2, "unit": "µg/mL"}, {"measurement": "MIC", "setting": "[17]; in combination with NXL-104", "value": 4.00, "unit": "µg/mL"}, {"measurement": "MIC", "setting": "[18]; Streptococcus pneumoniae, ATCC6301, alone, read-out: MIC", "value": "≤ 0.06", "unit": "µg/mL"}, {"measurement": "MIC", "setting": "[18]; in combination with NXL-104", "value": "≤0.06", "unit": "µg/mL"}, {"measurement": "MIC", "setting": "[19]; [29]", "value": 0.5, "unit": "µg/mL"}, {"measurement": "MIC", "setting": "[19]; in combination with NXL-104", "value": 0.25, "unit": "µg/mL"}, {"measurement": "MIC", "setting": "[20]; [29]", "value": 8, "unit": "µg/mL"}, {"measurement": "MIC", "setting": "[20]; in combination with NXL-104", "value": 1.00, "unit": "µg/mL"}, {"measurement": "MIC", "setting": "[21]; Klebsiella pneumoniae, 4104, Table 2, alone, read-out: MIC", "value": 8, "unit": "µg/mL"}, {"measurement": "MIC", "setting": "[21]; Klebsiella pneumoniae, 4104, Table 3, alone, read-out: MIC", "value": 32, "unit": "µg/mL"}, {"measurement": "MIC", "setting": "[21]; [25]", "value": 2.00, "unit": "µg/mL"}, {"measurement": "MIC", "setting": "[21]; [26]", "value": 2, "unit": "µg/mL"}, {"measurement": "MIC", "setting": "[22]; Klebsiella pneumoniae, 4106, Table 2, alone, read-out: MIC", "value": 8, "unit": "µg/mL"}, {"measurement": "MIC", "setting": "[22]; Klebsiella pneumoniae, 4106, Table 3, alone, read-out: MIC", "value": "> 32", "unit": "µg/mL"}, {"measurement": "MIC", "setting": "[22]; [25]", "value": 2.00, "unit": "µg/mL"}, {"measurement": "MIC", "setting": "[22]; [26]", "value": 4, "unit": "µg/mL"}, {"measurement": "MIC", "setting": "[23]; [29]", "value": "> 32", "unit": "µg/mL"}, {"measurement": "MIC", "setting": "[23]; in combination with NXL-104", "value": ">32", "unit": "µg/mL"}]}
